Inconclusive results and toxic doses are left out. Cut-off read from the data, not from the text of the source: active = T/C of 150% or more; inactive = T/C below 125%.
Tested on: L1210 leukemia ip in BDF1 mice, survival T/C
Experiment: NCI In Vivo Anticancer Drug Screen. Data for tumor model L1210 Leukemia (intraperitoneal) in B6D2F1 (BDF1) mice
Conditions: endpoint: mean survival time, higher = longer survival
Outline: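 Tumor cells were implanted, animals were treated, and survival was followed. The result divides the treated measurement by the vehicle-control measurement.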

[1] = dose: 100.0 mg/kg/injection, schedule: Q01DX001 (ip), vehicle: other
[2] = dose: 300.0 mg/kg/injection, schedule: Q01DX001 (ip), vehicle: other

Measured: T/C

N#CCCOc1ccc(Cl)cc1
inactive: dose: 100.0 mg/kg/injection, schedule: Q04DX003 (ip), vehicle: saline with Tween-80 96 % of control | dose: 200.0 mg/kg/injection, schedule: Q04DX003 (ip), vehicle: saline with Tween-80 99 % of control

O=C1CCC(=O)N1SC(Cl)(Cl)Cl
inactive: dose: 7.5 mg/kg/injection, schedule: Q01DX009 (ip), vehicle: saline 101 % of control | dose: 15.0 mg/kg/injection, schedule: Q01DX009 (ip), vehicle: saline 101 % of control | dose: 30.0 mg/kg/injection, schedule: Q01DX009 (ip), vehicle: saline 106 % of control | dose: 45.0 mg/kg/injection, schedule: Q01DX009 (ip), vehicle: saline 99 % of control | dose: 70.0 mg/kg/injection, schedule: Q01DX009 (ip), vehicle: saline 92 % of control | [1] 103 % of control | dose: 100.0 mg/kg/injection, schedule: Q04DX002 (ip), vehicle: saline with Tween-80 87 % of control | dose: 105.0 mg/kg/injection, schedule: Q01DX009 (ip), vehicle: saline 89 % of control | dose: 200.0 mg/kg/injection, schedule: Q01DX001 (ip), vehicle: other 95 % of control | dose: 240.0 mg/kg/injection, schedule: Q01DX009 (ip), vehicle: saline 88 % of control | [2] 98 % of control | dose: 360.0 mg/kg/injection, schedule: Q01DX009 (ip), vehicle: saline 86 % of control

Nc1nc(N)[n+]([O-])c(N)c1NCO
inactive: dose: 88.0 mg/kg/injection, schedule: Q01DX001 (ip), vehicle: other 101 % of control | [1] 97 % of control | dose: 133.0 mg/kg/injection, schedule: Q01DX001 (ip), vehicle: other 103 % of control | [2] 103 % of control | dose: 400.0 mg/kg/injection, schedule: Q01DX001 (ip), vehicle: other 94 % of control

NC(N)=NC(N)=Nc1ccc2ccccc2c1[N+](=O)[O-]
inactive: dose: 100.0 mg/kg/injection, schedule: Q01DX009 (ip), vehicle: Klucel (hydroxypropylcellulose) (HPC) 94 % of control | dose: 100.0 mg/kg/injection, schedule: Q04DX003 (ip), vehicle: Klucel (hydroxypropylcellulose) (HPC) 97 % of control | dose: 200.0 mg/kg/injection, schedule: Q01DX009 (ip), vehicle: Klucel (hydroxypropylcellulose) (HPC) 100 % of control | dose: 200.0 mg/kg/injection, schedule: Q04DX003 (ip), vehicle: Klucel (hydroxypropylcellulose) (HPC) 100 % of control | dose: 400.0 mg/kg/injection, schedule: Q01DX009 (ip), vehicle: Klucel (hydroxypropylcellulose) (HPC) 98 % of control | dose: 400.0 mg/kg/injection, schedule: Q04DX003 (ip), vehicle: Klucel (hydroxypropylcellulose) (HPC) 95 % of control

CCCCCC(O)C(C)C (stereo unspecified)
inactive: dose: 37.5 mg/kg/injection, schedule: Q04DX003 (ip), vehicle: saline 96 % of control | dose: 75.0 mg/kg/injection, schedule: Q04DX003 (ip), vehicle: saline 108 % of control | dose: 150.0 mg/kg/injection, schedule: Q04DX003 (ip), vehicle: saline 94 % of control

OCC(O)C(O)C(O)C(O)c1nc2ccccc2[nH]1 (stereo unspecified)
inactive: dose: 100.0 mg/kg/injection, schedule: Q04DX002 (ip), vehicle: Klucel (hydroxypropylcellulose) (HPC) 105 % of control | dose: 200.0 mg/kg/injection, schedule: Q04DX002 (ip), vehicle: Klucel (hydroxypropylcellulose) (HPC) 87 % of control | dose: 400.0 mg/kg/injection, schedule: Q04DX002 (ip), vehicle: Klucel (hydroxypropylcellulose) (HPC) 97 % of control

Reference: PubChem BioAssay AID248 (DTP/NCI, 2004)
